Data set [1] has as its target T1, CYP2C19 (Homo sapiens, UniProt P33261).
T1 construct: expressed in transfected cells; host or cells: HepG2 cells infected with Ad-CYP2C19 (2 MOI) together with the four other P450 adenoviruses
Put plainly: Kinetic analysis of omeprazole 5-hydroxylation in Ad-P450 cells. The format is in vitro ADME.
Description: (§1) The cells were seeded in a 48-well tissue culture plate (Becton Dickinson) at 5.0 × 10^4 cells/well. After 48 h, the cells were simultaneously infected with Ad-CYP1A2 at 5 multiplicity of infection (MOI), Ad-CYP2C9 at 1 MOI, Ad-CYP2C19 at 2 MOI, Ad-CYP2D6 at 0.05 MOI, and Ad-CYP3A4 at 10 MOI. […] After shaking, the mixtures were centrifuged at 2500 × g for 10 min and the supernatants were evaporated to dryness at 60 °C in a block incubator. The residues were dissolved in acetonitrile containing 0.1% acetic acid and the solutions were subjected to liquid chromatography/tandem mass spectrometry (LC-MS/MS) analysis.
(§2) The Prominence system (Shimadzu Corporation, Kyoto, Japan) equipped with LCMS-8040 system (Shimadzu Corporation) was used for LC-MS/MS analysis with an electrospray ionization interface. The ionization mode used was positive in the multiple reaction monitoring. The chromatographic separation was performed on Xterra MS C18 columns (2.1 mm × 100 mm, 5 μm) (Waters, Milford, MA, USA). The column oven temperature was maintained at 40 °C. The mobile phase consisted of acetonitrile containing 0.1% acetic acid and water containing 0.1% acetic acid (85:15) with a flow rate of 200 μL/min. […]
(§3) The Km, Vmax, and IC50 values were determined using Prism software (version 6.0; GraphPad Software Inc., San Diego, CA, USA).

Data set [2] addresses T1, CYP2C19. Put plainly: CYP2C19 inhibition (omeprazole 5-hydroxylation) in Ad-P450 cells, substrate cocktail. It is filed as in vitro ADME. As to conditions: probe omeprazole (5-hydroxylation), read-out: Residual activity CYP2C19.
For data set [3], the target named is T2, CYP2D6 (Homo sapiens, UniProt P10635).
T2 construct: expressed in transfected cells; host or cells: HepG2 cells infected with Ad-CYP2D6 (0.05 MOI) together with the four other P450 adenoviruses
T2 sequence (P10635 whole entry): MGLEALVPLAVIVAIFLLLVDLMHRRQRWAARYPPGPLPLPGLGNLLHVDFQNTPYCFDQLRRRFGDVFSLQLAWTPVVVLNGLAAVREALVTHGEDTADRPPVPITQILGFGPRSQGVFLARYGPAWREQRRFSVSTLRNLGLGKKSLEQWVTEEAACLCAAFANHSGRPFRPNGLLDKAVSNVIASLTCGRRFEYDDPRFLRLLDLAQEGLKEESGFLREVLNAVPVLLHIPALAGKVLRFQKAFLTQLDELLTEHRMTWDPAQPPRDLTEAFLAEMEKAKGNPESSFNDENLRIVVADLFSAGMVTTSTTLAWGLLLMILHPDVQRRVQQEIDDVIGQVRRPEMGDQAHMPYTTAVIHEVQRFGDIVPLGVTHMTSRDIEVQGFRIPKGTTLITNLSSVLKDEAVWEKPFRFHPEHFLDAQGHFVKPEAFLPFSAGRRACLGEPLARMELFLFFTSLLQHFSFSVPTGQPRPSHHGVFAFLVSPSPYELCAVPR
Description: CYP2D6 inhibition (dextromethorphan O-demethylation) in Ad-P450 cells, substrate cocktail. It is filed as in vitro ADME. The conditions noted are these: read-out: Residual activity CYP2D6.

Data set [4] has as its target T3, CYP3A4 (Homo sapiens, UniProt P08684).
T3 construct: expressed in transfected cells; host or cells: HepG2 cells infected with Ad-CYP3A4 (10 MOI) together with the four other P450 adenoviruses
Put plainly: CYP3A4 inhibition (midazolam 1′-hydroxylation) in Ad-P450 cells, substrate cocktail. The conditions noted are these: probe midazolam (1′-hydroxylation), read-out: Residual activity CYP3A4. The format is in vitro ADME.

Data set [5] concerns the target T4, CYP1A2 (Homo sapiens, UniProt P05177).
T4 sequence (P05177 1-516): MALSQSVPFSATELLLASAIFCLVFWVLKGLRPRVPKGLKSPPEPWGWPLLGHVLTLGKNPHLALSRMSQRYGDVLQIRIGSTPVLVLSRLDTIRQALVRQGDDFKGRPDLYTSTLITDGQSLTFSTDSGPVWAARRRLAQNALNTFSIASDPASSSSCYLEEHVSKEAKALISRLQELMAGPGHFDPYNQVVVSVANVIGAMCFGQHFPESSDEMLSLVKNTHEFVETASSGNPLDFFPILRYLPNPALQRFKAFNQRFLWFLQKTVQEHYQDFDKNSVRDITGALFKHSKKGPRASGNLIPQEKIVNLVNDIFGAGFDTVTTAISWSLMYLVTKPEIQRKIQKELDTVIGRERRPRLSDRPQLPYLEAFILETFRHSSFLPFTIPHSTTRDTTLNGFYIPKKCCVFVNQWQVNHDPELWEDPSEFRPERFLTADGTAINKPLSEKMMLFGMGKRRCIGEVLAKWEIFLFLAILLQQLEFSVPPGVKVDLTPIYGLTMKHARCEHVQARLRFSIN
Put plainly: CYP1A2 inhibition (phenacetin O-deethylation) in Ad-P450 cells, substrate cocktail. More on the design: expressed in transfected cells; host or cells: HepG2 cells infected with Ad-CYP1A2 (5 MOI) together with the four other P450 adenoviruses. As to conditions: probe phenacetin (O-deethylation), read-out: Residual activity CYP1A2. It is filed as in vitro ADME.

For data set [6], the target named is T3, CYP3A4. Put plainly: Kinetic analysis of midazolam 1′-hydroxylation in Ad-P450 cells. It is filed as in vitro ADME.
Description: as §1, §2, §3
For data set [7], the target named is T2, CYP2D6. Description: Kinetic analysis of dextromethorphan O-demethylation in Ad-P450 cells. It is filed as in vitro ADME.
Description: as §1, §2, §3
In data set [8] the test system is CYP3A4. As to conditions: cited from earlier work.
The test system of data set [9] is CYP2C9. As to conditions: competitive inhibitor; cited from earlier work.
The test system of data set [10] is CYP1A2. The conditions noted are these: cited from earlier work.
Data set [11] concerns the target T4, CYP1A2. As to conditions: Phenacetin O-deethylation, Ad-P450 cells, 5 h.
Description: as §1, §2, §3
The target of data set [12] is T5, CYP2C9 (Homo sapiens, UniProt P11712).
T5 construct: expressed in transfected cells; host or cells: HepG2 cells infected with Ad-CYP2C9 (1 MOI) together with the four other P450 adenoviruses
T5 sequence (P11712 whole entry): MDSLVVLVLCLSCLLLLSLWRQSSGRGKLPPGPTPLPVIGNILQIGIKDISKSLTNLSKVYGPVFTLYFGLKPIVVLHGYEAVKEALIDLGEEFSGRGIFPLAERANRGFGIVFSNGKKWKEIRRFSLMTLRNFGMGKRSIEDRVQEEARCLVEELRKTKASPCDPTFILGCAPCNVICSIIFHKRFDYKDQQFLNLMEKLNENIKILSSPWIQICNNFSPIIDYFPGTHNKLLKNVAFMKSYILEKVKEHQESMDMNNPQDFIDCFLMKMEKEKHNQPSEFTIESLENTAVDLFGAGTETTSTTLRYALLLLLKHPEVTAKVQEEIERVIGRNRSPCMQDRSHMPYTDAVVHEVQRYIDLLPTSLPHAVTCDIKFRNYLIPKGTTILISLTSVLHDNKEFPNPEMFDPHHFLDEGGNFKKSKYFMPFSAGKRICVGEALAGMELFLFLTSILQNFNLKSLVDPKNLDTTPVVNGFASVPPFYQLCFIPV
Description: Kinetic analysis of diclofenac 4′-hydroxylation in Ad-P450 cells. The format is in vitro ADME. Here is the method: The column oven temperature was maintained at 40 °C.

T3 sequence (P08684 whole entry): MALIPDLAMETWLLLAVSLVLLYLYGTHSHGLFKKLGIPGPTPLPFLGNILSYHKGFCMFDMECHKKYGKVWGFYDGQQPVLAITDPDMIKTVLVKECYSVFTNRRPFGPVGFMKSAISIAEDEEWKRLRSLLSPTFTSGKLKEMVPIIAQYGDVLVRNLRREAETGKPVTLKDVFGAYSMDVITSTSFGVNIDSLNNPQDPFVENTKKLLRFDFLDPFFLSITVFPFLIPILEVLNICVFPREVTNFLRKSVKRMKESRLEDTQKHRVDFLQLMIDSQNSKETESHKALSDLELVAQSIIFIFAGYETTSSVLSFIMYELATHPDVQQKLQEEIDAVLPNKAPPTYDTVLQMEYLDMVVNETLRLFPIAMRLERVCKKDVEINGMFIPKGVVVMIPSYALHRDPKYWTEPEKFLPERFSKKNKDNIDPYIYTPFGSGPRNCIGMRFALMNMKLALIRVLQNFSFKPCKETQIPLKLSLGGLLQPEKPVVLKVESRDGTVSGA
T1 sequence (P33261 whole entry): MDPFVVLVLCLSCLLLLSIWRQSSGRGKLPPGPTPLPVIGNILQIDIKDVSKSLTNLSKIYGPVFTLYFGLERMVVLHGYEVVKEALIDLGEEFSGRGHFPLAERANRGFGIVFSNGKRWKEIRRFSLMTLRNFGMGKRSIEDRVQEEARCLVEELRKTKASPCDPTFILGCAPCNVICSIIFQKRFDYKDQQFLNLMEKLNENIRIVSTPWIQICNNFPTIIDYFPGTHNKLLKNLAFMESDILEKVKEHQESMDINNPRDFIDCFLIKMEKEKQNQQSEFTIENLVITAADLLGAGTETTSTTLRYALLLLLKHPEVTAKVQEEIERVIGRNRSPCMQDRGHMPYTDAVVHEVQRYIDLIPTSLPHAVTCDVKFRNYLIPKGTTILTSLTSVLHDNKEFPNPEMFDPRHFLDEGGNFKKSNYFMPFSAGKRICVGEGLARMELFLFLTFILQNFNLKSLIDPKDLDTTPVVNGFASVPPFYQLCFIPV

In the case of `COc1ccc2[nH]c([S+]([O-])Cc3ncc(C)c(OC)c3C)nc2c1` (stereo not shown) [Omeprazole], the Vmax at CYP2C19 [1] (5 h) was found to be 4.66 pmol/well/hr. For the same compound, at CYP2C19 [1] (human), the Michaelis constant (Km) (usually the substrate concentration at which the rate is half of its maximum) at 5 h came out at 2.75 µM.
Turning to `COc1cc(/C=C/C(=O)CC(=O)/C=C/c2ccc(O)c(OC)c2)ccc1O` [curcumin], the activity at 5 h, 50 μM on CYP2C19 [2] is 72.7%; on CYP2D6 [3], 71.9%; at CYP3A4 [4] it was 61.9%; at CYP1A2 [5], 58.3%.
In the case of `Cc1ncc2n1-c1ccc(Cl)cc1C(c1ccccc1F)=NC2` [Midazolam], the Vmax on CYP3A4 [6] (Midazolam 1′-hydroxylation, Ad-P450 cells, 5 h) came to 12.30 pmol/well/hr. The Km at 5 h on CYP3A4 [6] (human) was 1 µM.
Consider `COc1ccc2c(c1)[C@]13CCCC[C@@H]1[C@H](C2)N(C)CC3` [Dextromethorphan], for which the Vmax at CYP2D6 [7] (Dextromethorphan O-demethylation, Ad-P450 cells, 5 h) is reported as 1.10 pmol/well/hr. The Michaelis constant (Km) at 5 h on CYP2D6 [7] (human) was determined as 17.1 µM.
For `c1cc2c(cc1[C@H]1OC[C@H]3[C@@H]1CO[C@@H]3c1ccc3c(c1)OCO3)OCO2` [Sesamin], the inhibition constant Ki – broadly, the equilibrium dissociation constant of an inhibitor or competing ligand from its target – in the data set with CYP3A4 [8] is 4.2 µM; with CYP2C9 [9], 24 µM; in the data set on CYP1A2 [10] it was 75 µM.
As for `CCOc1ccc(NC(C)=O)cc1` [Phenacetin], on CYP1A2 [11], the Vmax came out at 100.30 pmol/well/hr.
For the compound `O=C(O)Cc1ccccc1Nc1c(Cl)cccc1Cl` [Diclofenac], the Vmax on CYP2C9 [12] (5 h) is 239.9 pmol/well/hr. Further, the Km at 5 h at CYP2C9 [12] (human) is 5.87 µM.

Source of the values: PMC5424325, “Effect of health foods on cytochrome P450-mediated drug metabolism” (Journal of Pharmaceutical Health Care and Sciences, 2017).
